Patent US8313669B2, “Liquid-crystal display” (Merck Patent Gesellschaft mit Beschränkter Haftung, priority 2007, dated 2012)

Experiments:
[1] = Solubility in nematic LC mixture LCT-06-441 (crystallisation on cooling); format: physicochemical; details: 5% by weight in LCT-06-441, stirred at 50° C. for ½ hour, then cooled to room temperature without stirring
Procedure: The solubility of compound (1) is compared with the solubility of the structurally analogous compound (A) known from the prior art (for example EP 1 498 468 A1), in which the polymerisable groups are linked in the para-position to the mesogenic group:
To this end, each compound is dissolved in the commercially available nematic LC mixture LCT-06-441 (Merck KGaA, Darmstadt) in a concentration of 5% by weight with stirring at 50° C. (½ hour) and then cooled to room temperature without stirring.

| Structure (SMILES) | melting point | Solubility (crystallisation behaviour) [1] |
| --- | --- | --- |
| C=C(C)C(=O)Oc1cccc(-c2cccc(OC(=O)C(=C)C)c2)c1 [(1), 3′-(2-Methylacryloyloxy)biphenyl-3-yl 2-methylacrylate] | 70 °C | Crystallises out overnight at RT |
| C=CC(=O)Oc1cccc(-c2cccc(OC(=O)C=C)c2)c1 [(2), 3′-Acryloyloxybiphenyl-3-yl acrylate] | 48 °C |  |
| C=C(C)C(=O)Oc1ccc(-c2ccc(OC(=O)C(=C)C)cc2)cc1 [(A), reference compound] |  | Immediately crystallises out on cooling to RT |

Now from value to compound, other results behind:

| melting point | Structure (SMILES) | Solubility (crystallisation behaviour) [1] |
| --- | --- | --- |
| 49 °C | C=C(C)C(=O)OCCCOc1cccc(-c2cccc(OC(=O)C(=C)C)c2)c1 [(3), 3′-[3-(2-Methylacryloyloxy)propoxy]biphenyl-3-yl 2-methylacrylate] |  |
| 76 °C | C=C(C)C(=O)OCCCCc1cc(-c2ccc(OC(=O)C(=C)C)cc2)ccc1OC(=O)C(=C)C [(9), 4′-(2-Methylacryloyloxy)-3-[4-(2-methylacryloyloxy)butyl]biphenyl-4-yl 2-methylacrylate] |  |
